Patent US20210189342A1, “COMPOSITIONS AND METHODS FOR MODULATING MONOCYTE AND MACROPHAGE INFLAMMATORY PHENOTYPES AND IMMUNOTHERAPY USES THEREOF” (Verseau Therapeutics, Inc., priority 2018, published 2021)

Legend:
Assay type in all cases: cell-based, human
DOCK2 = assay: siRNA dose response, DOCK2 mRNA knockdown, bDNA Assay; conditions: THP-1, 24 hr
Procedure: (§1) Dose response curves for siRNAs were generated in vitro using a variety of cell lines according to Table 4.
(§2) Briefly, cells were seeded in 96-well plates and reverse transfected with siRNA, Lipofectamine® 2000 (0.5 uL/well; ThermoFisher), and, in some cases, a reporter plasmid (50 ng/well). The reporter plasmid (psiCHECK™-2, Promega) encoded both firefly luciferase and the gene of interest fused to renilla luciferase; silencing of the gene of interest results in proportional silencing of renilla luciferase but leaves firefly luciferase unaffected as an internal control.
(§3) After 24 hr incubation at 37° C., mRNA knockdown was measured using an endpoint assay. For targets without a reporter plasmid, a branched DNA (bDNA) assay was performed according to the manufacturer's instructions (QuantiGene® Singleplex Gene Expression Assay, ThermoFisher) to measure both the target gene and GAPDH (housekeeping gene) mRNA. Data are plotted as siRNA concentration (nM) vs. remaining mRNA (ratio of target gene to GAPDH, normalized to mock siRNA-transfected cells). For targets with a reporter plasmid, a Dual-Glo® Luciferase Assay was performed according to the manufacturer's instructions (Promega) to measure firefly and renilla luciferase expression. Data are plotted as siRNA concentration (nM) vs. remaining mRNA (ratio of renilla to firefly luminescence, normalized to mock siRNA-transfected cells).
(§4) For all dose response curves, a 4-parameter logistic model was applied to determine the IC50 of each siRNA sequence (Table 5 and FIG. 2). Data shown in Table 5 and FIG. 2 represent the mean of quadruplicates, +/−standard deviation.

FERMT3 = assay: siRNA dose response, FERMT3 mRNA knockdown, bDNA Assay; conditions: THP-1, 24 hr
Procedure: as §1, §2, §3, §4

CCR5 = assay: siRNA dose response, CCR5 mRNA knockdown, Dual-Glo Luciferase Assay; conditions: Hepal-6 + reporter plasmid, 24 hr
Procedure: as §1, §2, §3, §4

CD53 = assay: siRNA dose response, CD53 mRNA knockdown, bDNA Assay; conditions: THP-1, 24 hr
Procedure: as §1, §2, §3, §4

LRRC25 = assay: siRNA dose response, LRRC25 mRNA knockdown, Dual-Glo Luciferase Assay; conditions: Hepa1-6 + reporter plasmid, 24 hr
Procedure: as §1, §2, §3, §4

CXorf21 = assay: siRNA dose response, CXorf21 mRNA knockdown, bDNA Assay; conditions: THP-1, 24 hr
Procedure: as §1, §2, §3, §4

## XD-09694: siRNA targeting DOCK2 (sense 5'-ccAucuGcGAuucauGuuudTsdT-3'; antisense 5'-AAAcAUGAAUCGcAGAUGGdTsdT-3'; RNA with 2'-O-methyl and phosphorothioate modifications, case key not given here, as printed in the source, key not given here)
DOCK2
  IC50: 403 pM

## XD-09701: siRNA targeting FERMT3 (sense 5'-ggcuGcGcuucAAguAcuAdTsdT-3'; antisense 5'-uAGuACUUGAAGCGcAGCCdTsdT-3'; RNA with 2'-O-methyl and phosphorothioate modifications, case key not given here, as printed in the source, key not given here)
FERMT3
  IC50: 921 pM

## XD-10551: siRNA targeting CCR5 (sense 5'-ccAuAcAGucAGuaucAAudTsdT-3'; antisense 5'-AUUGAuACUGACUGuAUGGdTsdT-3'; as printed in the source, key not given here)
CCR5
  IC50: 46 pM

## XD-09205: siRNA targeting CD53 (sense 5'-acuAAuAucuGAGcAucuudTsdT-3'; antisense 5'-AAGAUGCUcAGAuAUuAGUdTsdT-3'; as printed in the source, key not given here)
CD53
  IC50: 132 pM

## XD-09251: siRNA targeting LRRC25 (sense 5'-gccGucGcuuuuccAGcAudTsdT-3'; antisense 5'-AUGCUGGAAAAGCGACGGCdTsdT-3'; RNA with 2'-O-methyl and phosphorothioate modifications, case key not given here, as printed in the source, key not given here)
LRRC25
  IC50: 2770 pM

## XD-09696: siRNA targeting DOCK2 (sense 5'-cucAuuGcAGAccgGAAAudTsdT-3'; antisense 5'-AUUUCCGGUCUGcAAUGAGdTsdT-3'; RNA with 2'-O-methyl and phosphorothioate modifications, case key not given here, as printed in the source, key not given here)
DOCK2
  IC50: 1780 pM

## XD-09207: siRNA targeting CD53 (sense 5'-agGGcAAGAucucauuucAdTsdT-3'; antisense 5'-UGAAAUGAGAUCUUGCCCUdTsdT-3'; as printed in the source, key not given here)
CD53
  IC50: 38 pM

## XD-10550: siRNA targeting CCR5 (sense 5'-ggAAcAAGAuGGAuuAucAdTsdT-3'; antisense 5'-UGAuAAUCcAUCUUGUUCCdTsdT-3'; as printed in the source, key not given here)
CCR5
  IC50: 17 pM

## XD-10553: siRNA targeting CCR5 (sense 5'-agGuAuGGuuAAuaAGuuudTsdT-3'; antisense 5'-AAACUuAUuAACcAuACCUdTsdT-3'; as printed in the source, key not given here)
CCR5
  IC50: 361 pM

## XD-09256: siRNA targeting LRRC25 (sense 5'-ccGAcuAuGAGAAcAuGuudTsdT-3'; antisense 5'-AAcAUGUUCUcAuAGUCGGdTsdT-3'; as printed in the source, key not given here)
LRRC25
  IC50: 601 pM

## XD-10552: siRNA targeting CCR5 (sense 5'-cauuAAAGAuAGucAucuudTsdT-3'; antisense 5'-AAGAUGACuAUCUUuAAUGdTsdT-3'; as printed in the source, key not given here)
CCR5
  IC50: 70 pM

## XD-09709: siRNA targeting FERMT3 (sense 5'-guAGcuAcAGGAugAuGAAdTsdT-3'; antisense 5'-UUcAUcAUCCUGuAGCuACdTsdT-3'; RNA with 2'-O-methyl and phosphorothioate modifications, case key not given here, as printed in the source, key not given here)
FERMT3
  IC50: 48 pM

## XD-09698: siRNA targeting DOCK2 (sense 5'-ggucGAGGAcAuuauuuucdTsdT-3'; antisense 5'-GAAAAuAAUGUCCUCGACCdTsdT-3'; as printed in the source, key not given here)
DOCK2
  IC50: 1360 pM

## XD-09209: siRNA targeting CD53 (sense 5'-auuGAuGuGuucuaAGucudTsdT-3'; antisense 5'-AGACUuAGAAcAcAUcAAUdTsdT-3'; as printed in the source, key not given here)
CD53
  IC50: 41 pM

## XD-10506: siRNA targeting CXorf21 (sense 5'-gucuGAAcucAucauGAcAdTsdT-3'; antisense 5'-UGUcAUGAUGAGUUcAGACdTsdT-3'; as printed in the source, key not given here)
CXorf21
  IC50: 750 pM

## XD-09691: siRNA targeting DOCK2 (sense 5'-ggGGAuAccucAuaAAGcAdTsdT-3'; antisense 5'-UGCUUuAUGAGGuAUCCCCdTsdT-3'; RNA with 2'-O-methyl and phosphorothioate modifications, case key not given here, as printed in the source, key not given here)
DOCK2
  IC50: 11700 pM

## XD-10504: siRNA targeting CXorf21 (sense 5'-gguGAuGGccAuuaAuucAdTsdT-3'; antisense 5'-UGAAUuAAUGGCcAUcACCdTsdT-3'; as printed in the source, key not given here)
CXorf21
  IC50: 1760 pM

## XD-09250: siRNA targeting LRRC25 (sense 5'-gccAGAGGAAcGccAGcGAdTsdT-3'; antisense 5'-UCGCUGGCGUUCCUCUGGCdTsdT-3'; as printed in the source, key not given here)
LRRC25
  IC50: 15000 pM

## XD-09708: siRNA targeting FERMT3 (sense 5'-gcuGccGAAuuGuacAcGAdTsdT-3'; antisense 5'-UCGUGuAcAAUUCGGcAGCdTsdT-3'; RNA with 2'-O-methyl and phosphorothioate modifications, case key not given here, as printed in the source, key not given here)
FERMT3
  IC50: 12 pM

## XD-09201: siRNA targeting CD53 (sense 5'-gcAuGAGuAGcuugAAAcudTsdT-3'; antisense 5'-AGUUUcAAGCuACUcAUGCdTsdT-3'; as printed in the source, key not given here)
CD53
  IC50: 67 pM

## XD-09259: siRNA targeting LRRC25 (sense 5'-cuucGAGGcuGAugAGGcudTsdT-3'; antisense 5'-AGCCUcAUcAGCCUCGAAGdTsdT-3'; RNA with 2'-O-methyl and phosphorothioate modifications, case key not given here, as printed in the source, key not given here)
LRRC25
  IC50: 293 pM

## XD-10559: siRNA targeting CCR5 (sense 5'-gcAAcGAAGGGAAauGucudTsdT-3'; antisense 5'-AGAcAUUUCCCUUCGUUGCdTsdT-3'; as printed in the source, key not given here)
CCR5
  IC50: 1020 pM

## XD-09208: siRNA targeting CD53 (sense 5'-uuuAuuAGAGGGccuuAuudTsdT-3'; antisense 5'-AAuAAGGCCCUCuAAuAAAdTsdT-3'; as printed in the source, key not given here)
CD53
  IC50: 162 pM

## XD-10558: siRNA targeting CCR5 (sense 5'-gcAcAuAcuuGAGacuGuudTsdT-3'; antisense 5'-AAcAGUCUcAAGuAUGUGCdTsdT-3'; as printed in the source, key not given here)
CCR5
  IC50: 1050 pM

## XD-10503: siRNA targeting CXorf21 (sense 5'-cuAcGuGAGcuGcaAAucAdTsdT-3'; antisense 5'-UGAUUUGcAGCUcACGuAGdTsdT-3'; RNA with 2'-O-methyl and phosphorothioate modifications, case key not given here, as printed in the source, key not given here)
CXorf21
  IC50: 654 pM

## XD-09697: siRNA targeting DOCK2 (sense 5'-accGGAAAuuucAgcAuuudTsdT-3'; antisense 5'-AAAUGCUGAAAUUUCCGGUdTsdT-3'; RNA with 2'-O-methyl and phosphorothioate modifications, case key not given here, as printed in the source, key not given here)
DOCK2
  IC50: 556 pM

## XD-09203: siRNA targeting CD53 (sense 5'-gcAuGGGcucuAucAAGGAdTsdT-3'; antisense 5'-UCCUUGAuAGAGCCcAUGCdTsdT-3'; as printed in the source, key not given here)
CD53
  IC50: 178 pM

## XD-09258: siRNA targeting LRRC25 (sense 5'-caAuAAAuGcuucgAGGcudTsdT-3'; antisense 5'-AGCCUCGAAGcAUUuAUUGdTsdT-3'; RNA with 2'-O-methyl and phosphorothioate modifications, case key not given here, as printed in the source, key not given here)
LRRC25
  IC50: 33 pM
